Drawing on the Kinase Knowledgebase extract (Sharma et al. 2016), this text covers IC50 for 16 compounds.

Some results are limits rather than exact numbers.

This test deals with EGFR (mouse) (UniProt P00533). The settings on record: nih3t3 fibroblast.

By IC50 is commonly meant the concentration that gives 50% inhibition.

In turn, `Cc1c(CCC(=O)O)c[nH]c1/C=C1\C(=O)Nc2ccc(S(N)(=O)=O)cc21` had an IC50 above 50 µM. Take `Cc1c[nH]c(/C=C2\C(=O)Nc3cccc(C)c32)c1CCC(=O)O`: the IC50 is 28.8 µM.

As to `Cc1[nH]c(/C=C2\C(=O)Nc3ccc(C(=O)O)cc32)c(C)c1CCC(=O)O`, the IC50 is above 50 µM.

Compound `Cc1c(CCC(=O)O)c[nH]c1/C=C1\C(=O)Nc2ccc(C(=O)O)cc21` showed an IC50 above 50 µM.

The compound `COc1ccccc1-c1ccc2c(c1)NC(=O)/C2=C\c1[nH]cc(CCC(=O)O)c1C` showed an IC50 of 19.2 µM. As for `Cc1c[nH]c(/C=C2\C(=O)Nc3ccc(Br)cc32)c1CCC(=O)O`, the figure is above 50 µM; as for `Cc1c(CCC(=O)O)c[nH]c1/C=C1\C(=O)Nc2ccccc21`, above 50 µM; as for `Cc1c(CCC(=O)O)c[nH]c1/C=C1\C(=O)Nc2cc(-c3ccccc3)ccc21`, 21.8 µM. As for `COc1cccc(-c2ccc3c(c2)NC(=O)/C3=C\c2[nH]c(C)c(CCC(=O)O)c2C)c1`, the figure is 24.1 µM; as for `Cc1c[nH]c(/C=C2\C(=O)Nc3ccccc32)c1CCC(=O)O`, above 50 µM. As for `COc1ccc2c(c1)NC(=O)/C2=C\c1[nH]c(C)c(CCC(=O)O)c1C`, the figure is above 50 µM. Regarding `Cc1[nH]c(/C=C2\C(=O)Nc3ccc(Br)cc32)c(C)c1CCC(=O)O`, the IC50 is above 50 µM. In the case of `COc1cccc(-c2ccc3c(c2)NC(=O)/C3=C\c2[nH]cc(C)c2CCC(=O)O)c1` it was 49.2 µM. As for `COc1ccc2c(c1)NC(=O)/C2=C\c1[nH]cc(CCC(=O)O)c1C`, the figure is above 50 µM; as for `CCOc1cccc(-c2ccc3c(c2)NC(=O)/C3=C\c2[nH]cc(C)c2CCC(=O)O)c1`, above 50 µM.

`Cc1[nH]c(/C=C2\C(=O)Nc3cc(-c4ccccc4)ccc32)c(C)c1CCC(=O)O` yielded an IC50 of 21.9 µM.
